In patent publication US20250163057A1, “DCN-1 MODULATING COMPOUNDS AND METHODS OF USE THEREOF” (Cellarity, Inc., priority 2023, published 2025):
Like-named read-outs stand apart in the source and are kept apart here.

What was measured:
DCN1 protein = DCN1 protein (Homo sapiens (Human), UniProt Q96GG9); assay: Intact Protein MS Analysis with the RapidFire-TOF System (covalent adduct formation); format: binding; details: MS Emax; 400 nM DCN1, 3 hours at room temperature
Outline: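 Tag-cleaved human DCN1 (400 nM) expressed in E. coli, in 25 mM Tris-HCl, 200 mM NaCl, 1 mM DTT, was incubated with 11 compound concentrations for 3 h at room temperature and quenched with 0.2% formic acid. Intact-protein Q-TOF MS with deconvolution detected the compound adduct mass.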

[1] = tested on: Cullin-3 (CUL3) neddylation; assay: AlphaLISA assay for Cullin-3 (CUL3) neddylation in TF 1 cells; format: cell-based; details: 3 hours treatment
Outline: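 TF 1 cells in unsupplemented IMDM treated with compound concentrations for 3 h, then lysed. CUL3 neddylation detected by AlphaLISA (biotinylated anti-NEDD8, anti-CUL3 acceptor beads overnight, streptavidin donor beads 1 h); normalized to vehicle (0%) and 1 μM DI-1548 (100%), IC50 from Hill fits.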

[2] = biological target: DCN1 (DCUND1) protein PONY domain (Homo sapiens (Human), UniProt Q96GG9); assay: TR-FRET assay, DCN1 binding with FAM-labeled probe
Sequence of DCN1 (DCUND1) protein PONY domain (Q96GG9 60-248): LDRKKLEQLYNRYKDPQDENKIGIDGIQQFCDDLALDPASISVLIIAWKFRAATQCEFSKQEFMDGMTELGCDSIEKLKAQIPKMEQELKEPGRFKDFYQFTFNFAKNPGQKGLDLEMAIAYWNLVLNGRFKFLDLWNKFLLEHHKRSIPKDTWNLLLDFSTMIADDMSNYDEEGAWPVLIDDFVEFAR
Outline: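 Tb-DCN1 PONY domain (E. coli, biotin/streptavidin-Tb); FAM-labelled non-covalent inhibitor probe; TritonX buffer, 200 mM NaCl; 5 nM DCN1 + 20 nM probe or 0.31 nM DCN1 + 900 nM total probe; 0.1% DMSO; TR-FRET read 1, 5, 24 hrs.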

[3] = 24 hr after treatment with compound, read-out: TR FRET IC50 24 hr
[4] = read-out: TR FRET IC50 1 hr, 1 hr after treatment with compound
[5] = TR FRET IC50 1 hr (nM), 1 hr after treatment with compound

Sequence of DCN1 protein (Q96GG9 whole entry): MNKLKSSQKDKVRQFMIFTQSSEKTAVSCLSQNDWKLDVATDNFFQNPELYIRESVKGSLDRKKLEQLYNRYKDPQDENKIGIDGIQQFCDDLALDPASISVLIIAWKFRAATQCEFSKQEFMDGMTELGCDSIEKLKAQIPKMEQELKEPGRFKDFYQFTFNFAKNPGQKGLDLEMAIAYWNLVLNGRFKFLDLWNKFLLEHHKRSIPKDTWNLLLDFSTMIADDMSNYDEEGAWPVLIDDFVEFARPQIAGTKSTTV

Row | SMILES | % Adduct Formation (DCN1 protein) | IC50 ([1]; Homo sapiens, TF-1, 3 h) [nM] | IC50 [2, 3] [nM] | IC50 [2, 4] [nM] | IC50 [1] [nM] | IC50 [2, 5] [nM]
1 | C=C(CN1C[C@@H]2C[C@H]1CO2)C(=O)NCc1nn(-c2ccccc2)c2c1[C@H](c1ccc(F)cc1)[C@H](NC(=O)c1cccc(C(F)(F)F)c1)C(=O)N2CC (mixture of isomers) [Compound I-12] | +++ (MS Emax % adduct formation greater than 80.0 and less than or equal to 100.0) | ≤ 100 | ≤ 200 | ≤ 200 |  | 
2 | CCN1C(=O)[C@@H](NC(=O)c2cccc(C(F)(F)F)c2)[C@@H](c2ccc(F)cc2)c2c([C@@H](CN(C)C)NC#N)nn(-c3ccccc3)c21 (mixture of isomers) [Compound I-272] | +++ (MS Emax % adduct formation greater than 80.0 and less than or equal to 100.0) | ≤ 100 | ≤ 200 | ≤ 200 |  | 
3 | CCN1C(=O)[C@@H](NC(=O)c2cccc(C(F)(F)F)c2)[C@@H](c2ccc(F)cc2)c2c(C(=O)N3CCOC[C@H]3C#N)nn(-c3ccccc3)c21 (mixture of isomers) [Compound I-295] | +++ (MS Emax % adduct formation greater than 80.0 and less than or equal to 100.0) |  | ≤ 200 |  | ≤ 100 | 1000 to 3000
4 | CCN1C(=O)[C@@H](NC(=O)c2cccc(C(F)(F)F)c2)[C@@H](c2ccc(F)cc2)c2c(C(=O)N3CCOC[C@@H]3C#N)nn(-c3ccccc3)c21 (mixture of isomers) [Compound I-297] | +++ (MS Emax % adduct formation greater than 80.0 and less than or equal to 100.0) | ≤ 100 | ≤ 200 |  |  | 1000 to 3000
5 | CCN1C(=O)[C@@H](NC(=O)c2cccc(C(F)(F)F)c2)[C@@H](c2ccc(F)cc2)c2c(C(=O)N(C)[C@@H](C#N)CCN3CC4CCC(C3)O4)nn(-c3ccccc3)c21 (mixture of isomers) [Compound I-319] | ++ (MS Emax % adduct formation greater than 30.0 and less than or equal to 80.0) | ≤ 100 | ≤ 200 |  |  | 1000 to 3000
6 | CCN1C(=O)[C@@H](NC(=O)c2cccc(C(F)(F)F)c2)[C@@H](c2ccc(F)cc2)c2c(C(=O)N(CC#N)CCN3CC4CC(C3)O4)nn(-c3ccccc3)c21 (mixture of isomers) [Compound I-322] | +++ (MS Emax % adduct formation greater than 80.0 and less than or equal to 100.0) | ≤ 100 | ≤ 200 | ≤ 200 |  | 
7 | CCN1C(=O)[C@@H](NC(=O)c2cccc(C(F)(F)F)c2)[C@@H](c2ccc(F)cc2)c2c(C(=O)N(CC#N)CCN3CC4CCC(C3)O4)nn(-c3ccccc3)c21 (mixture of isomers) [Compound I-324] | +++ (MS Emax % adduct formation greater than 80.0 and less than or equal to 100.0) | ≤ 100 | ≤ 200 |  |  | 200 to 1000
8 | CCN1C(=O)[C@@H](NC(=O)c2cccc(C(F)(F)F)c2)[C@@H](C2CC2)c2c(C(=O)N(C)C(C)C#N)nn(C3CCOCC3)c21 (mixture of isomers) [Compound I-349] | +++ (MS Emax % adduct formation greater than 80.0 and less than or equal to 100.0) | ≤ 100 | ≤ 200 | ≤ 200 |  | 
9 | N#C[C@@H]1C[C@H]2C[C@H]2N1C(=O)c1nn(C2CCOCC2)c2c1[C@H](C1CC1)[C@H](NC(=O)c1cccc(C(F)(F)F)c1)C(=O)N2 (mixture of isomers) [Compound I-385] | +++ (MS Emax % adduct formation greater than 80.0 and less than or equal to 100.0) | ≤ 100 | ≤ 200 |  |  | 1000 to 3000
10 | C=C(CN1CCN(C2COC2)CC1)C(=O)NCc1nn(-c2ccccc2)c2c1[C@H](c1ccc(F)cc1)[C@H](NC(=O)c1cccc(C(F)(F)F)c1)C(=O)N2CC (racemic) [Compound I-57] | ++ (MS Emax % adduct formation greater than 30.0 and less than or equal to 80.0) | ≤ 100 | ≤ 200 | ≤ 200 |  | 
11 | C=C(CN1CCOCC1)C(=O)NCc1nn(-c2ccccc2)c2c1[C@H](c1ccc(F)cc1)[C@H](NC(=O)c1cccc(C(F)(F)F)c1)C(=O)N2CC (racemic) [Compound I-67] | + (MS Emax % adduct formation greater than or equal to 0.0 and less than or equal to 30.0) | 100 to 1000 | ≤ 200 | ≤ 200 |  | 
12 | CCN1C(=O)[C@@H](NC(=O)c2cccc(C(F)(F)F)c2)[C@@H](c2ccc(F)cc2)c2c(NC(=O)CC#N)nn(-c3ccccc3)c21 (racemic) [Compound I-80] | + (MS Emax % adduct formation greater than or equal to 0.0 and less than or equal to 30.0) | ≤ 100 | 1000 to 3000 |  |  | 1000 to 3000
13 | CCN1C(=O)[C@@H](NC(=O)c2cccc(C(F)(F)F)c2)[C@@H](c2ccc(F)cc2)c2c(C/C=C/C(=O)OC)nn(-c3ccccc3)c21 (racemic) [Compound I-131, rac-methyl (E)-4-((4R,5R)-7-ethyl-4-(4-fluorophenyl)-6-oxo-1-phenyl-5-(3-(trifluoromethyl)benzamido)-4,5,6,7-tetrahydro-1H-pyrazolo[3,4-b]pyridin-3-yl)but-2-enoate] | + (MS Emax % adduct formation greater than or equal to 0.0 and less than or equal to 30.0) |  | 200 to 1000 |  |  | 1000 to 3000
14 | C=C(C)C(=O)N(C)Cc1nn(-c2ccccc2)c2c1[C@H](c1ccc(F)cc1)[C@H](NC(=O)c1cccc(C(F)(F)F)c1)C(=O)N2CC (racemic) [Compound I-156] | + (MS Emax % adduct formation greater than or equal to 0.0 and less than or equal to 30.0) |  | 200 to 1000 |  |  | 200 to 1000
15 | CCN1C(=O)[C@@H](NC(=O)c2cccc(C(F)(F)F)c2)[C@@H](c2ccc(F)cc2)c2c(NS(=O)(=O)CCl)nn(-c3ccccc3)c21 (racemic) [Compound I-163] | + (MS Emax % adduct formation greater than or equal to 0.0 and less than or equal to 30.0) |  | ≤ 200 | ≤ 200 |  | 
16 | CCN1C(=O)[C@@H](NC(=O)c2cccc(C(F)(F)F)c2)[C@@H](c2ccc(F)cc2)c2c(C(=O)N(CC#N)CCCN(C)C)nn(-c3ccccc3)c21 (racemic) [Compound I-271] | +++ (MS Emax % adduct formation greater than 80.0 and less than or equal to 100.0) | ≤ 100 | ≤ 200 | ≤ 200 |  | 
17 | CCN1C(=O)[C@@H](NC(=O)c2cccc(C(F)(F)F)c2)[C@@H](c2ccc(F)cc2)c2c(C(=O)N(C)CC#N)nn(-c3ccccc3)c21 (racemic) [Compound I-282] | +++ (MS Emax % adduct formation greater than 80.0 and less than or equal to 100.0) |  | ≤ 200 | ≤ 200 | ≤ 100 | 
18 | CCN1C(=O)[C@@H](NC(=O)c2cccc(C(F)(F)F)c2)[C@@H](c2ccc(F)cc2)c2c(C(=O)N(CC#N)CCN3CCOCC3)nn(-c3ccccc3)c21 (racemic) [Compound I-320] | +++ (MS Emax % adduct formation greater than 80.0 and less than or equal to 100.0) | ≤ 100 | ≤ 200 | ≤ 200 |  | 
19 | CCN1C(=O)[C@@H](NC(=O)c2cccc(C(F)(F)F)c2)[C@@H](c2ccc(F)cc2)c2c(C(=O)N(CC#N)CCN(C)C3COC3)nn(-c3ccccc3)c21 (racemic) [Compound I-321] | +++ (MS Emax % adduct formation greater than 80.0 and less than or equal to 100.0) | ≤ 100 | ≤ 200 | ≤ 200 |  | 
20 | CCN1C(=O)[C@@H](NC(=O)c2cccc(C(F)(F)F)c2)[C@@H](c2ccc(F)cc2)c2c(C(=O)N(C)[C@@H](C#N)CCO)nn(-c3ccccc3)c21 (relative stereo) [Compound I-290, (4S,5S)—N-[(1R*)-1-cyano-3-hydroxypropyl]-7-ethyl-4-(4-fluorophenyl)-N-methyl-6-oxo-1-phenyl-5-[3-(trifluoromethyl)benzamido]-4H,5H-pyrazolo[3,4-b]pyridine-3-carboxamide] | + (MS Emax % adduct formation greater than or equal to 0.0 and less than or equal to 30.0) | ≤ 100 | ≤ 200 |  |  | ≤ 200
21 | CCN1C(=O)[C@@H](NC(=O)c2cccc(C(F)(F)F)c2)[C@@H](c2ccc(F)cc2)c2c(CN(C)C(=O)[C@H](C)Cl)nn(-c3ccccc3)c21 (stereo in doubt) [Compound I-30] | + (MS Emax % adduct formation greater than or equal to 0.0 and less than or equal to 30.0) |  | 1000 to 3000 | > 3000 |  | 
22 | CCN1C(=O)[C@@H](NC(=O)c2cccc(C(F)(F)F)c2)[C@@H](c2ccc(F)cc2)c2c(CN(C)C(=O)[C@H](C)Cl)nn(-c3ccccc3)c21 (stereo in doubt) [Compound I-33] | + (MS Emax % adduct formation greater than or equal to 0.0 and less than or equal to 30.0) |  | 1000 to 3000 |  |  | 1000 to 3000
23 | CCN1C(=O)[C@@H](NC(=O)c2cccc(C(F)(F)F)c2)[C@@H](c2ccc(F)cc2)c2c(C(=O)N3CCCC[C@@H]3C#N)nn(-c3ccccc3)c21 [Compound I-121] | ++ (MS Emax % adduct formation greater than 30.0 and less than or equal to 80.0) |  | ≤ 200 | ≤ 200 |  | 
